The SangsterLogP compilation

Experiment: method code SF-HPLC, from DOI: 10.1021/jf960844v

Compound	logP
COC(=O)c1c(Oc2nc(OC)cc(OC)n2)cccc1C(C)=NOCC=C(Cl)Cl	4.23
COC(=O)c1c(Oc2nc(OC)cc(OC)n2)cccc1C(C)=NOCc1ccccc1	4.01
COC(=O)c1c(Oc2nc(OC)cc(OC)n2)cccc1/C(C)=N/OCCCl	3.23
C=CCO/N=C(\C)c1cccc(Oc2nc(OC)cc(OC)n2)c1C(=O)OC	3.13
COC(=O)c1c(Oc2nc(OC)cc(OC)n2)cccc1C(C)=NOCCF	2.31
COC(=O)c1c(Oc2nc(OC)cc(OC)n2)cccc1C(C)=NO	1.93
CO/N=C(\C)c1cccc(Oc2nc(OC)cc(OC)n2)c1C(=O)OC	2.57
CCCCON=C(C)c1cccc(Oc2nc(OC)cc(OC)n2)c1C(=O)OC	4.11
CCCO/N=C(\C)c1cccc(Oc2nc(OC)cc(OC)n2)c1C(=O)OC	3.59
COC(=O)c1c(Oc2nc(OC)cc(OC)n2)cccc1C(C)=NOCC(F)(F)F	3.39
C=C(Br)CON=C(C)c1cccc(Oc2nc(OC)cc(OC)n2)c1C(=O)OC	3.73
C=C(Cl)CON=C(C)c1cccc(Oc2nc(OC)cc(OC)n2)c1C(=O)OC	3.63
CCO/N=C(\C)c1cccc(Oc2nc(OC)cc(OC)n2)c1C(=O)OC	2.96
COC(=O)c1c(Oc2nc(OC)cc(OC)n2)cccc1C(C)=NOC(C)=O	1.68
